The structures appear in SMILES notation.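 Results reflect a 48-hour exposure of cells in 96-well plates to compound at five concentrations. GI50: concentration for 50% inhibition of growth.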 Active and inactive are the calls of the source. Cut-off read from the data, not from the text of the source: active = GI50 up to about 1.1 µM and inactive = higher.

What all share (assay): DTP human tumour cell line panel, 48 h
For assay [1], the system named is SF-295.
For assay [2], the system named is IGROV-1.
The subject of assay [3] is MDA-N.
Assay [4] has as its system SK-MEL-5.
Assay [5] relates to HCC 2998.
Assay [6] has as its system Malme-3M.
The subject of assay [7] is HCT-15.
Assay [8] concerns NCI/ADR-RES.
Assay [9] concerns M14.
For assay [10], the system named is COLO 205.
In assay [11] the test system is KM12.
For assay [12], the system named is CAKI-1.
Assay [13] relates to MDA-MB-231.
Assay [14] has as its system A549.
Assay [15] relates to Hs-578T.
The test system of assay [16] is UO-31.
Assay [17] has as its system MCF7.
Assay [18] deals with A498.
The subject of assay [19] is RPMI-8226.
For assay [20], the system named is HL-60.

The term GI50 denotes the concentration giving 50% growth inhibition. Take `CN(C)c1ccc(/C=N/CC2CCCN3CCCCC23)cc1` (configuration not stated): the GI50 in [1] was > 100 µM (inactive); in [2], > 100 µM (inactive); in assay [3] it was > 100 µM (inactive); in [4], 58.7 µM (inactive); in assay [5] it was > 100 µM (inactive); in assay [6], > 100 µM (inactive). The GI50 was over 100 µM in assay [7]; > 100 µM (inactive) in assay [8]; > 100 µM (inactive) in assay [9]; 42.7 µM (inactive) in [10]; > 100 µM (inactive) in assay [11]; > 100 µM (inactive) in [12]. For the same molecule, the GI50 in [13] was > 100 µM (inactive); in [14] it was > 100 µM (inactive); in assay [15] it was 24.8 µM (inactive); in assay [16], > 100 µM (inactive); in assay [17] it was > 100 µM (inactive).

`COc1ccc2c(c1)CC[C@@H]1C2CC[C@]2(C)C(=C=CP(=O)(O)O)CCC12` (some centres not stated): the GI50 in assay [1], in assay [2], in [3], in [4], in assay [5] and in assay [6] was > 100 µM (inactive) throughout. The GI50 was over 100 µM in assay [7]; > 100 µM (inactive) in assay [8]; > 100 µM (inactive) in assay [9]; > 100 µM (inactive) in assay [10]; > 100 µM (inactive) in assay [11]; > 100 µM (inactive) in assay [12]. Further, the GI50 in assay [18] was > 100 µM (inactive); in assay [14], > 100 µM (inactive); in [15], > 100 µM (inactive); in [19], < 0.01 µM (active); in assay [17], 79.6 µM (inactive).

Turning to `CN(/N=C/C=N/N(C)C1=NCCCCN1)C1=NCCCCN1`, the GI50 in assay [1], in assay [2], in [3], in assay [4], in [5] and in [6] was > 100 µM (inactive) in each case. In addition, the GI50 is over 100 µM in assay [7]; > 100 µM (inactive) in [8]; > 100 µM (inactive) in assay [9]; > 100 µM (inactive) in assay [10]; > 100 µM (inactive) in assay [12]; > 100 µM (inactive) in [13]. The GI50 in assay [14], in [15], in assay [16] and in assay [17] was > 100 µM (inactive) in each case.

For the molecule `O=C1OC2(CCCCC2)C(Oc2ccc(Cl)cc2)=C1F`, the GI50 was 45.4 µM (inactive) in [1]; 54.8 µM (inactive) in assay [2]; 37.2 µM (inactive) in [3]; 12.9 µM (inactive) in assay [4]; 22.3 µM (inactive) in [5]; 15.6 µM (inactive) in assay [6]. Moreover, the GI50 is 23.7 µM (inactive) in assay [20]; 33 µM (inactive) in [9]; 26.5 µM (inactive) in assay [10]; 40.1 µM (inactive) in assay [11]; 77.4 µM (inactive) in [12]; 47.3 µM (inactive) in [18]. Further, the GI50 in [13] is 77.3 µM (inactive); in assay [14], 42.1 µM (inactive); in assay [15], 50 µM (inactive); in assay [16], 49.5 µM (inactive); in assay [19], 32.7 µM (inactive); in assay [17], 37.8 µM (inactive).

As to `O=C1Nc2ccccc2/C1=N/Nc1nc(-c2ccc(Br)cc2)cs1`, the GI50 in [1] is 24.1 µM (inactive); in assay [2] it was 0.678 µM (active); in assay [3], 41.5 µM (inactive); in assay [4], 15.6 µM (inactive); in assay [5] it was 31.8 µM (inactive); in assay [7], 19.4 µM. Besides, the GI50 in assay [8] was 18 µM (inactive); in [9], 21.8 µM (inactive); in [10], 24.9 µM (inactive); in [11] it was 30.3 µM (inactive); in assay [12], 18.6 µM (inactive); in assay [13], 17.5 µM (inactive). For the same molecule, the GI50 is 25.2 µM (inactive) in [14], 17.9 µM (inactive) in assay [15], 10.3 µM (inactive) in assay [16] and 37.3 µM (inactive) in assay [17].

For the molecule `CCOC(=O)c1nnsc1NN=C(C)C`, the GI50 in assay [1], in assay [2], in assay [3], in assay [4], in [5] and in assay [6] was > 100 µM (inactive) each time. Further, the GI50 was > 100 µM (inactive) in [20]; over 100 µM in assay [7]; > 100 µM (inactive) in assay [8]; > 100 µM (inactive) in assay [9]; > 100 µM (inactive) in assay [10]; > 100 µM (inactive) in assay [11]. For the same molecule, the GI50 in assay [12], in [18], in [13], in assay [14], in assay [15] and in assay [16] was > 100 µM (inactive) in each case. Also, in assay [19], the GI50 is > 100 µM (inactive).

As for `COC(=O)c1ccc(C(=O)NC(Cc2ccc(Oc3cc(CC(NC(=O)c4ccccc4C(=O)OC)C(=O)OC)ccc3OC)cc2)C(=O)OC)cc1` (configuration not stated), the GI50 in assay [1] is 43.9 µM (inactive); in assay [2], > 100 µM (inactive); in [3] it was > 100 µM (inactive); in assay [5] it was > 100 µM (inactive); in [6], > 100 µM (inactive); in [20], > 100 µM (inactive). For the same molecule, the GI50 is over 100 µM in assay [7]; > 100 µM (inactive) in assay [8]; > 100 µM (inactive) in assay [9]; > 100 µM (inactive) in assay [10]; > 100 µM (inactive) in assay [11]; > 100 µM (inactive) in assay [12]. For the same molecule, the GI50 was 72.6 µM (inactive) in assay [18]; > 100 µM (inactive) in [14]; 4.21 µM (inactive) in assay [15]; > 100 µM (inactive) in assay [16]; > 100 µM (inactive) in assay [19]; 67.5 µM (inactive) in [17].

As for `COC(=O)C(=O)C(C(=O)C(=O)Nc1cccc([N+](=O)[O-])c1)c1nc2ccc(Cl)cc2nc1O` (configuration not stated), the GI50 in assay [1], in assay [2], in [3], in [4], in assay [5] and in assay [20] was > 100 µM (inactive) each time. For the same molecule, the GI50 was over 100 µM in assay [7]; > 100 µM (inactive) in assay [8]; > 100 µM (inactive) in [9]; > 100 µM (inactive) in [10]; > 100 µM (inactive) in assay [11]; 95.7 µM (inactive) in assay [12]. For the same molecule, the GI50 in [13] is 65.3 µM (inactive); in [14], > 100 µM (inactive); in [15], > 100 µM (inactive); in assay [16], 36.7 µM (inactive); in assay [17], > 100 µM (inactive).

Consider `FC(F)(F)c1cnc(N/N=C(/c2ccccc2)c2ccccn2)c(Cl)c1`, for which the GI50 in assay [1] is 3.4 µM (inactive); in assay [2] it was 2.83 µM (inactive); in [3], 23.8 µM (inactive); in assay [4] it was 4.29 µM (inactive); in assay [5], 5.92 µM (inactive); in assay [7] it was 1.98 µM. Also, the GI50 in assay [8] is 2.78 µM (inactive); in [9], 3.78 µM (inactive); in assay [10], 2.51 µM (inactive); in assay [11], 5.14 µM (inactive); in assay [12], 5.85 µM (inactive); in [13] it was 5.57 µM (inactive). For the same molecule, the GI50 was 3.53 µM (inactive) in assay [14]; 9.14 µM (inactive) in assay [15]; 4.94 µM (inactive) in assay [16]; 2.97 µM (inactive) in assay [19]; 2.44 µM (inactive) in assay [17].

`O=C(O)C(Cc1cc(I)c(O)c(I)c1)C1CCCCC1` (configuration not stated): the GI50 in assay [1] is 35.6 µM (inactive); in assay [2], 27.5 µM (inactive); in assay [3] it was 43.5 µM (inactive); in assay [4], 22.4 µM (inactive); in assay [5], 27.2 µM (inactive); in assay [6] it was 37.7 µM (inactive). In addition, the GI50 in [7] was 31.7 µM; in assay [8], 37.4 µM (inactive); in assay [9], 45.5 µM (inactive); in assay [11], 30.4 µM (inactive); in assay [12], 30.6 µM (inactive); in assay [18] it was 21.3 µM (inactive). Also, the GI50 in [13] was 21.8 µM (inactive); in [14] it was 31.9 µM (inactive); in [15], 27.9 µM (inactive); in assay [16], 45.7 µM (inactive).

As to `O=c1c2ccccc2nc2sc(/N=C/C=C/c3ccccc3)nn12`, the GI50 in assay [1], in assay [2], in assay [3], in assay [4], in assay [5] and in assay [6] was > 100 µM (inactive) each time. The GI50 was over 100 µM in assay [7]; > 100 µM (inactive) in assay [8]; > 100 µM (inactive) in assay [9]; > 100 µM (inactive) in assay [10]; > 100 µM (inactive) in assay [11]; > 100 µM (inactive) in assay [12]. In addition, the GI50 in assay [18] was > 100 µM (inactive); in assay [14] it was > 100 µM (inactive); in assay [15] it was > 100 µM (inactive); in assay [16], 77.4 µM (inactive); in [19] it was > 100 µM (inactive); in [17], > 100 µM (inactive).

On to `COC(=O)C(Cc1c(-c2[nH]c3ccccc3c2CC(NC(C)=O)C(=O)OC)[nH]c2ccccc12)NC(C)=O` (configuration not stated), for which the GI50 in assay [1], in assay [2], in assay [3], in assay [4], in [6] and in assay [20] was > 100 µM (inactive) throughout. Besides, the GI50 in assay [7] was over 100 µM; in [8], > 100 µM (inactive); in assay [9], > 100 µM (inactive); in assay [10], > 100 µM (inactive); in assay [11], > 100 µM (inactive); in [12], > 100 µM (inactive). For the same molecule, the GI50 in assay [18], in assay [13], in assay [14], in assay [15], in assay [16] and in assay [19] was > 100 µM (inactive) in each case.
